This note sets out measurements from article PMC9423655, “Huntington’s disease phenotypes are improved via mTORC1 modulation by small molecule therapy” (PLoS ONE, 2022).

Assay [1] has as its system Npr13KO HEK293T cells. The assay can be described thus: mTORC1 activation (p70S6K1) in HEK293T cells null for GATOR1 component Nprl3. As to conditions: leucine-starved 50 minutes, treatment 10 minutes. Format: cell-based. As for the experimental part:
All cell lines were cultured in DMEM (Corning, #MT10013CV) supplemented with 10% heat-inactivated FBS (Gibco, #16140–071). All cell lines were maintained at 37°C and 5% CO2. For amino acid starvation, cells were rinsed once with and incubated Amino acid-free RPMI (US Biologicals, #R8999-04A) supplemented with 10% dialyzed FBS (Gibco, #26400044) for 50 min followed by treatment with NV-5297, leucine, or vehicle for 10 minutes. For leucine starvation, cells were rinsed once with and incubated in leucine-free DMEM (AthenaES, #0420) supplemented with 10% dialyzed FBS (Gibco, #26400044) for 50 minuted followed by treatment with NV-5297, leucine, or vehicle for 10 minutes.
To ascertain if Sestrins and the GATOR pathway are required for NV-5297 activity, we tested mTORC1 activation in cells null for either all three Sestrin isoforms [SesnTKO] or for the GATOR1 component Npr13 [Npr13KO] [44]. […]
(A) Activation of the mTORC1 pathway by NV-5297. […] Representative immunoblots of ^T389pS6K1 and quantification of the normalized level of ^T389pS6K1 from 8 independent experiments (F) show TORC1 activity in unedited HEK-293T cells, HEK-293T cells deficient for Sestrin 1 (Sesn1), 2 (Sesn2) and 3 (Sesn3) (D) or HEK-293T cells deficient for the GATOR1 component Nprl3 (E) after 50 minutes leucine starvation followed by the addition of vehicle, NV-5297 or leucine for 10 minutes. […]

Assay [2] deals with mTORC1 pathway (pS6). The assay is described as follows: pS6 immunoblot of striatum and heart after one week of oral dosing in N171-82Q HD mice. The format is in vivo. The following applies: N171-82Q mice, oral 160 mg/kg daily for one week. As for the experimental part:
The initial trial consisted in one week of oral dosing in 12 weeks old N171-82Q males. The chronic 6 weeks treatment (Veh n = 15, NV-5297 n = 14) took place from 6 to 12 weeks of age. The cardiac stress took place in animals from 10 to 12 weeks of age (Veh-Sal n = 9, NV-Sal n = 10, Veh-Iso n = 16, NV-Iso n = 11).
Specific regions of the brain and heart were homogenized using a Next Advance Bullet Blender Storm in Lysis Buffer (Cell lysis buffer: 1% Triton X-100, 50 mM HEPES pH 7.4, 100 mM sodium chloride, 2 mM EDTA, 10 mM Beta-glycerophosphate, 10 mM Sodium pyrophosphate, and 1 protease inhibitor) at 4°C. Lysates were cleared by centrifugation at 13,200 rpm at 4°C for 10 minutes. Equal amounts of total protein from each sample were denatured and, resolved by SDS-PAGE. Membranes were imaged using the LI-COR imaging system. Proteins levels are normalized to tubulin, actin or GAPDH levels and further normalized to vehicle treated mice for each tissue.
Supplementary file pone.0273710.s002.tiff: S2 Fig Activation of the mTORC1 pathway in mice striatum and heart after oral dosing with NV-5297. (A) Representative immunoblot for the phosphorylated (^S240/244pS6), S6 and actin or tubulin in the striatum and heart of N171-82Q wild-type (WT) mice or N171-82Q HD mice respectively collected 1 hour after the last dose of a week of oral dosing with vehicle (Veh) or NV-5297 (160 mg/kg; A). Quantification of levels of ^S240/244pS6 in the striatum (B) and the heart (C) normalized to loading control levels and further normalized to untreated WT mice. Data are presented as mean ± SEM. **P ≤ 0.01, ***P ≤ 0.001 and ****P ≤ 0.0001 (Kruskal-Wallis test with Dunn’s multiple comparison tests). (TIFF) Click here for additional data file.

With `CC(C)(C[C@H](N)C(=O)O)C(F)(F)F` [NV-5297, (S)-2-amino-5,5,5-trifluoro-4,4-dimethylpentanoic acid], the p70S6K1 levels result in assay [1] is on record as “remained unchanged”. For the same compound, in assay [2], the “pS6 in heart relative to vehicle” value is “increased”; the “pS6 in striata relative to vehicle” value is recorded as “increased”; the “ratio of pS6 level in striatum and heart compared with age-matched WT mice” value is on record as “normalized”.
